Laboratory results reported in ChEMBL document CHEMBL1141472, “Design, synthesis, and biological evaluation of 8-biarylquinolines: a novel class of PDE4 inhibitors” (Bioorg Med Chem Lett, 2008).

Legend:
Details in all cases: in vivo
[1] = (§1) Half life in rat; assay type: ADME, organism-based
[2] = Oral bioavailability in rat; assay type: ADME, organism-based
[3] = Cmax in squirrel monkey at 10 mg/kg; assay type: ADME, organism-based, Saimiri sciureus; parameters: dose 10 mg/kg
[4] = Cmax in squirrel monkey at 3 mg/kg; assay type: ADME, organism-based, Saimiri sciureus; parameters: dose 3 mg/kg
[5] = species: Rattus norvegicus; assay: as §1; assay type: ADME, organism-based

half-life [1]	bioavailability [2]	Cmax [3]	Cmax [4]	t1/2 [5]	SMILES
1.2 h	76%				CC(C)(c1cc(-c2cccc(-c3ccc[n+]([O-])c3)c2)c2ncccc2c1)S(C)(=O)=O
1.2 h	83%				Cc1ccc(-c2cccc(-c3cc(C(C)(C)S(C)(=O)=O)cc4cccnc34)c2)c[n+]1[O-]
1.7 h	10%				CC(C)(c1cc(-c2cccc(-c3ccc(CO)[n+]([O-])c3)c2)c2ncccc2c1)S(C)(=O)=O
0.7 h	11%				CC(C)NC(=O)Nc1ccc(-c2cccc(-c3cc(C(C)(C)S(C)(=O)=O)cc4cccnc34)c2)c[n+]1[O-]
0.2 h	47%				CC(=O)Nc1ccc(-c2cccc(-c3cc(C(C)(C)S(C)(=O)=O)cc4cccnc34)c2)c[n+]1[O-]
< 1 h	0%				CC(C)(O)c1cc(-c2cccc(-c3cc(C(C)(C)S(C)(=O)=O)cc4cccnc34)c2)c[n+]([O-])c1
< 1 h	0%				CC(C)(c1cc(-c2cccc(-c3cc(C(=O)NC4CC4)c[n+]([O-])c3)c2)c2ncccc2c1)S(C)(=O)=O
2 h	54%				CC(C)(c1cc(-c2cccc(-c3ccc(C(=O)O)cc3)c2)c2ncccc2c1)S(C)(=O)=O
1 h	24%				CC(C)(c1cc(-c2cccc(-c3ccc(CCC(=O)O)cc3)c2)c2ncccc2c1)S(C)(=O)=O
2 h	100%				CC(C)(CC(=O)O)c1ccc(-c2cccc(-c3cc(C(C)(C)S(C)(=O)=O)cc4cccnc34)c2)cc1
		3.8 µM			Cc1noc(/C(=C/c2cccc(-c3cc(C(C)(C)S(C)(=O)=O)cc4cccnc34)c2)c2ccc(S(C)(=O)=O)cc2)n1
6.5 h	100%				CC(C)(c1cc(-c2cccc(-c3ccc(C(=O)NC4CC4)[n+]([O-])c3)c2)c2ncccc2c1)S(C)(=O)=O
0.3 h	60%				CC(C)(c1cc(-c2cccc(-c3ccc(CC(=O)O)cc3)c2)c2ncccc2c1)S(C)(=O)=O
1.5 h	100%		41 µM		CC(C)(O)c1ccc(-c2cccc(-c3cc(C(C)(C)S(C)(=O)=O)cc4cccnc34)c2)c[n+]1[O-]
2 h	100%	65 µM			CC(C)(c1cc(-c2cccc(-c3ccc(C4CC4C(=O)O)cc3)c2)c2ncccc2c1)S(C)(=O)=O (single isomer, unassigned)
				2 h	CC(C)(c1cc(-c2cccc(-c3ccc(C4CC4C(=O)O)cc3)c2)c2ncccc2c1)S(C)(=O)=O (single isomer, unassigned; enantiomer A)
